From patent US20120016010A1, “RNA Interference Mediated Inhibition of BTB and CNC Homology 1, Basic Leucine Zipper Transcription Factor 1 (BACH1) Gene Expression Using Short Interfering Nucleic Acid (siNA)” (Merck Sharp & Dohme Corp, priority 2009, published 2012)
[invAb] = inverted abasic unit; m = 2'-O-methyl; r = 2'-OH (RNA); f = 2'-fluoro

Key:
[1] = tested on: Bach1 mRNA; assay: Initial screen: Bach1 mRNA knock-down in human A549 cells (96-well transfection, quantitative RT-PCR); assay type: cell-based; conditions: Bach1 mRNA, 10 nM siNA, human A549 cells, n = 2, mean ± S.D., normalized to GAPDH and non-targeting control, 24 hrs post-transfection
Description: (§1) All cells were obtained from ATCC (Manassas, Va.) unless otherwise indicated. Cells were grown and transfected under standard conditions, which are detailed below for each cell line.
(§2) Cells were plated in all wells of a tissue-culture treated, 96-well plate at a final count of 5000 cells/well in 100 μL of the appropriate culture media. The cells were cultured for 24 hours after plating at 37° C. in the presence of 5% CO2.
(§3) After 24 hours, complexes containing siNA and RNAiMax were created as follows: A solution of RNAiMax diluted 33-fold in OPTI-MEM was prepared. […] After incubation of RNAiMax/OPTI-MEM solution at room temperature for 5 min, an equal volume of the siNA solution and the RNAiMax solution were added together for each of the siNAs.
(§4) This solution was incubated at room temperature for 20 minutes. After incubation, 20 uL of the solution was added to each of the relevant wells. The final concentration of siNA in each well was 10 nM and the final volume of RNAiMax in each well was 0.3 ul. […]
(§5) Briefly, a 60 uL (1 plate) or 110 uL (2 plates) of the Lysis Solution with DNase I was dispensed into each well of the Lysis Buffer Plate (twin.tec full skirt plate). The lysis buffer and stop plates were stored at 4° C. until the cells were washed.
(§6) The plate was spun at 1100 rpm for 5 minutes. The culture medium was aspirated and discarded from the wells of the culture plate. The lysis was performed automatically using a BioMek FX instrument and method. After the Biomek method was completed, the lysis plate was incubated for 2 min at room temperature. The lysis plate can be stored for 2 hours at 4° C., or at −20° C. or −80° C. for two months.
(§7) Each well of the reverse transcription plate required 10 uL of 2× reverse transcriptase Buffer, 1 uL of 20× reverse transcription enzyme and 2 uL of nuclease-free water. The reverse transcription master mix was prepared by mixing 2× reverse transcription buffer, 20× reverse transcription enzyme mix, and nuclease-free water. 13 uL of the reverse transcription master mix was dispensed into each well of the reverse transcription plate (semi-skirted). A separate reverse transcription plate was prepared for each cell plate. The plate was loaded onto a Biomek NX or Biomek FX Dual −96 and the Biomek method was run. The program is programmed to automatically added 7 uL of lysate from the cell lysis procedure described above into each well of the reverse transcription plate. The plate is sealed and spun on a centrifuge (1000 rpm for 30 seconds) to settle the contents to the bottom of the reverse transcription plate. The plate is placed in a thermocycler at 37° C. for 60 min, 95° C. for 5 min, and 4° C. until the plate is removed from the thermocycler. Upon removal, if not used immediately, the plate was frozen at −20° C.
(§8) A series of probes and primers were used to detect the various mRNA transcripts of the genes of Bach1, HMOX-1, and GAPDH in mouse and human cell lines. The assays were performed on an ABI 7900 instrument, according to the manufacturer's instructions. […] The PCR reactions were carried out at 50° C. for 2 min, 95° C. for 20 min followed by 40 cycles at 95° C. for 15 secs and 60° C. for 1 min
(§9) Within each experiment, the […] was set in the exponential phase of the amplification curve, and based on the intersection point of the baselines with the amplification curve, a Ct value was assigned by the instrument.
(§10) The expression level of the gene of interest and % knock-down was calculated using Comparative Ct method:
(§11) ΔCt=ΔCt(Target siRNA)−ΔCt(NTC)
(§12) Relative expression level=2^−ΔΔCt
(§13) The non-targeting control siNA was, unless otherwise indicated, chosen as the value against which to calculate the % knock-down, because it is the most relevant control.

[2] = tested on: Bach1 mRNA; assay: Initial screen: Bach1 mRNA knock-down in mouse NIH 3T3 cells (96-well transfection, quantitative RT-PCR); assay type: cell-based; conditions: mouse NIH3T3 cells, n = 2, 24 hrs post-transfection, protocol 10 nM siNA
Description: as §1, §2, §3, §4, §5, §6, §7, §8, §9, §10, §11, §12, §13

Row | Substance | % KD [1] | % KD [2]
1 | 29975-DC: Bach1 siNA duplex, target site 1893 (mouse); sense B GucGcAAGAGGAAAcuuGA TTB (SEQ 99); antisense UCAAGuuuccucuuGcGAcUU (SEQ 100) (sense GUCGCAAGAGGAAACUUGATT; antisense UCAAGUUUCCUCUUGCGACUU; sense: DNA at AGT, 2'-fluoro at CU, [invAb] at 5' end, 3' end, backbone not given here; antisense: sugars from the 5' end rrrmmfffffffffmfmmfmm, backbone not given here) | 59 ± 8.3% | 40.4 ± 0.4%
2 | 29963-DC: Bach1 siNA duplex, target site 362; sense B GGAuuuGAAccuuuAAuuc TTB (SEQ 75); antisense GAAuuAAAGGuucAAAuccUU (SEQ 76) (sense GGAUUUGAACCUUUAAUUCTT; antisense GAAUUAAAGGUUCAAAUCCUU; sense: DNA at AGT, 2'-fluoro at CU, [invAb] at 5' end, 3' end, backbone not given here; antisense: sugars from the 5' end rrrffmmmmmfffmmmfffmm, backbone not given here) | 32.9 ± 3.4% | 18.5 ± 2.2%
3 | 29973-DC: Bach1 siNA duplex, target site 1780 (mouse); sense B cucAcGAAAuGAuuuccAA TTB (SEQ 95); antisense UUGGAAAucAuuucGuGAGUU (SEQ 96) (sense CUCACGAAAUGAUUUCCAATT; antisense UUGGAAAUCAUUUCGUGAGUU; sense: DNA at AGT, 2'-fluoro at CU, [invAb] at 5' end, 3' end, backbone not given here; antisense: sugars from the 5' end rrrmmmmffmffffmfmmmmm, backbone not given here) | −8 ± 11.1% | 76.4 ± 5.3%
4 | 29983-DC: Bach1 siNA duplex, target site 363; sense B GAuuuGAAccuuuAAuucA TTB (SEQ 115); antisense UGAAuuAAAGGuucAAAucUU (SEQ 116) (sense GAUUUGAACCUUUAAUUCATT; antisense UGAAUUAAAGGUUCAAAUCUU; sense: DNA at AGT, 2'-fluoro at CU, [invAb] at 5' end, 3' end, backbone not given here; antisense: sugars from the 5' end rrrmffmmmmmfffmmmffmm, backbone not given here) | 74.7 ± 1.8% | 49 ± 2%
5 | 29978-DC: Bach1 siNA duplex, target site 403 (mouse); sense B GGuuAAAGGAuuuGAAccu TTB (SEQ 105); antisense AGGuucAAAuccuuuAAccUU (SEQ 106) (sense GGUUAAAGGAUUUGAACCUTT; antisense AGGUUCAAAUCCUUUAACCUU; sense: DNA at AGT, 2'-fluoro at CU, [invAb] at 5' end, 3' end, backbone not given here; antisense: sugars from the 5' end rrrfffmmmffffffmmffmm, backbone not given here) | 14.4 ± 0^ % | 3.3 ± 3.8%
6 | 29969-DC: Bach1 siNA duplex, target site 1790 (mouse); sense B GAuuuccAAuccuuGuuGA TTB (SEQ 87); antisense UCAAcAAGGAuuGGAAAucUU (SEQ 88) (sense GAUUUCCAAUCCUUGUUGATT; antisense UCAACAAGGAUUGGAAAUCUU; sense: DNA at AGT, 2'-fluoro at CU, [invAb] at 5' end, 3' end, backbone not given here; antisense: sugars from the 5' end rrrmfmmmmmffmmmmmffmm, backbone not given here) | 36 ± 7.3% | 72.7 ± 4.5%
